These are literature values, as cited in patent US20250057162A1, “FUNGICIDAL COMPOSITIONS” (SYNGENTA CROP PROTECTION AG, priority 2021, published 2025).

This data set deals with Mycosphaerella graminicola (Septoria tritici).

For the molecule `COc1ccnc(C(=O)N[C@@H](C)C(=O)O[C@@H](C)C(c2ccc(F)cc2)c2ccc(F)cc2)c1OC(C)=O` [Florylpicoxamid, (1S)-2,2-bis(4-fluorophenyl)-1-methylethyl N-{[3-(acetyloxy)-4-methoxy-2-pyridyl]carbonyl}-L-alaninate], the “control of wheat leaf blotch disease (in words)” value is “particularly effective”.
